Measurements taken from the supplement of paper PMC10307832.

Columns and labels:
Assay in all cases: relative viability (nuclei count vs DMSO), 5 days (fraction); higher = more cells survive
CUDC-101 + Navitoclax = compound: C#Cc1cccc(Nc2ncnc3cc(OC)c(OCCCCCCC(=O)NO)cc23)c1 [CUDC-101] + CC1(C)CCC(c2ccc(Cl)cc2)=C(CN2CCN(c3ccc(C(=O)NS(=O)(=O)c4ccc(N[C@H](CCN5CCOCC5)CSc5ccccc5)c(S(=O)(=O)C(F)(F)F)c4)cc3)CC2)C1 [Navitoclax] (partner 0.5 µM)
Outline: (§1)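 Lung cancer cell lines were seeded in 1536-well plates and dosed by pin tool the next day, with either a single drug or a fixed anchor-drug dose combined with five library-drug doses (not always all listed) spaced in √10 steps. Five days later, one step fixed the cells and stained their nuclei (final 0.05% Triton X-100, 1% formaldehyde, 1 ug/ml Hoechst), and nuclei were counted on 4× images. Relative viability is the nuclei count in treated wells divided by the count in vehicle wells, and each value is the median of duplicate plates.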

NVP-TAE684 + Palbociclib = compound: COc1cc(N2CCC(N3CCN(C)CC3)CC2)ccc1Nc1ncc(Cl)c(Nc2ccccc2S(=O)(=O)C(C)C)n1 [NVP-TAE684] + CC(=O)c1c(C)c2cnc(Nc3ccc(N4CCNCC4)cn3)nc2n(C2CCCC2)c1=O [Palbociclib] (partner 0.5 µM)
Outline: as §1

CUDC-101 + Trametinib = compound: C#Cc1cccc(Nc2ncnc3cc(OC)c(OCCCCCCC(=O)NO)cc23)c1 [CUDC-101] + CC(=O)Nc1cccc(-n2c(=O)n(C3CC3)c(=O)c3c(Nc4ccc(I)cc4F)n(C)c(=O)c(C)c32)c1 [Trametinib] (partner 0.02 µM)
Outline: as §1

Cell Line	relative viability (CUDC-101 + Navitoclax; first compound 0.01 µM)	relative viability (CUDC-101 + Navitoclax; first compound 0.03162 µM)	relative viability (CUDC-101 + Navitoclax; first compound 0.1 µM)	relative viability (CUDC-101 + Navitoclax; first compound 0.3162 µM)	relative viability (CUDC-101 + Navitoclax; first compound 1 µM)	relative viability (NVP-TAE684 + Palbociclib; first compound 0.2 µM)	relative viability (NVP-TAE684 + Palbociclib; first compound 0.6325 µM)	relative viability (NVP-TAE684 + Palbociclib; first compound 2 µM)	relative viability (CUDC-101 + Trametinib; first compound 0.01 µM)	relative viability (CUDC-101 + Trametinib; first compound 0.03162 µM)	relative viability (CUDC-101 + Trametinib; first compound 0.1 µM)	relative viability (CUDC-101 + Trametinib; first compound 0.3162 µM)	relative viability (CUDC-101 + Trametinib; first compound 1 µM)
HCC-44	0.836	0.933	0.877	1.06	0.827	1.01	0.986	0.867	1.04	1.08	1.04	1.05	1.03
EKVX	0.972	0.977	0.874	0.941	0.593	0.358	0.351	0.34	0.353	0.349	0.335	0.407	0.224
NCI-H23	0.801	0.796	0.817	0.849	0.791	0.439	0.5	0.241	0.338	0.357	0.413	0.373	0.351
NCI-H2347	0.88	0.797	0.751	0.937	0.783	0.449	0.453	0.359	0.285	0.264	0.278	0.294	0.259
SK-LU-1	1.03	0.774	0.852	0.662	0.489	0.352	0.388	0.333	0.475	0.439	0.551	0.663	0.456
A549	1.34	1.12	1.19	1.2	1.15								
LU99A	0.857	1.07	0.728	0.642	0.159	0.373	0.429	0.254	0.444	0.539	0.617	0.535	0.374
NCI-H596	1.06	0.825	0.942	0.938	0.866				0.817	0.776	0.848	0.874	0.801
A-427	0.978	0.919	0.939	0.926	0.924	0.539	0.527	0.431	0.763	0.743	0.736	0.733	0.461
SW 900						0.576	0.456	0.43	0.914	0.74	0.799	0.627	0.746
COR-L 105	0.866	0.755	0.739	0.64	0.264	0.4	0.393	0.297	0.442	0.424	0.41	0.452	0.311
LOU-NH91	0.773	0.505	0.473	0.466	0.251	0.548	0.504	0.502	0.804	0.727	0.738	0.831	0.738
COR-L23	1.08	1.07	0.907	1.09	0.444	0.307	0.209	0.152	0.641	0.548	0.74	0.574	0.332
